The values that follow are results of earlier work, collected in patent US20220175755A1, “METHODS OF TREATING TOBACCO SMOKING ADDICTION, AND TREATING NICOTINE AND TOBACCO SMOKING ADDICTION” (Pharma Unlimited B.V., priority 2017, published 2022).

Where two headings read alike, the source gives them in different places.

The subject of data set [1] is number of cigarettes smoked by tobacco smokers. Conditions: aerosol with an inhaler, dose of 400 μg CBD dissolved in absolute ethanol≈5%.
The conditions of data set [2]: transdermal patches.
The mark [3] stands for this setting: nicotine replacement therapy using chewing gum.

Regarding `C=C(C)[C@@H]1CCC(C)=C[C@H]1c1c(O)cc(CCCCC)cc1O` [CBD], in data set [1], the “reduction of the number of cigarettes smoked” value is reported as 40%.
Turning to `CN1CCC[C@H]1c1cccnc1` [nicotine, 3-[(2S)-1-methylpyrrolidine-2-yl]pyridine], in data set [2], the “time after applying a patch at which blood nicotine levels start to rise” value is recorded as “about 30 minutes”. Where the note is “chewing gum, 90 minutes after stopping chewing”, the “blood concentration after stopping chewing the gum” value was “about 7 ng/ml”. Where the note is “chewing tobacco”, the “peak nicotine absorption rate” value is listed as “around 145 μg/min” and the “time of peak nicotine absorption rate” value is 5 min. Besides, under setting [3], the peak blood concentration result is on record as “less than 9 ng/ml”, the “peak nicotine absorption rate” value is “around 65 μg/min”, the “time for nicotine absorption rate to decline to zero” value was “about 90 minutes” and the “time of peak nicotine absorption rate” value is 10 min. Under setting [3], the “time to peak blood concentration” value is reported as “about 30 minutes”. Under “smoking cigarettes”, the peak blood concentration entry is recorded as “around 15 ng/ml”, the “peak nicotine absorption rate” value is “around 200 μg/min”, the “time of peak nicotine absorption rate” value is recorded as “about 5 minutes” and the “time to peak blood concentration” value is “about 10 minutes”. The “time for blood concentration to fall to 70% of the peak value” (smoking cigarettes, after finishing smoking) was “about 20 minutes”.
